Test [1] addresses T1, human ferroportin (SLC40A1) (Homo sapiens, UniProt Q9NP59).
T1 sequence (Q9NP59 1-571): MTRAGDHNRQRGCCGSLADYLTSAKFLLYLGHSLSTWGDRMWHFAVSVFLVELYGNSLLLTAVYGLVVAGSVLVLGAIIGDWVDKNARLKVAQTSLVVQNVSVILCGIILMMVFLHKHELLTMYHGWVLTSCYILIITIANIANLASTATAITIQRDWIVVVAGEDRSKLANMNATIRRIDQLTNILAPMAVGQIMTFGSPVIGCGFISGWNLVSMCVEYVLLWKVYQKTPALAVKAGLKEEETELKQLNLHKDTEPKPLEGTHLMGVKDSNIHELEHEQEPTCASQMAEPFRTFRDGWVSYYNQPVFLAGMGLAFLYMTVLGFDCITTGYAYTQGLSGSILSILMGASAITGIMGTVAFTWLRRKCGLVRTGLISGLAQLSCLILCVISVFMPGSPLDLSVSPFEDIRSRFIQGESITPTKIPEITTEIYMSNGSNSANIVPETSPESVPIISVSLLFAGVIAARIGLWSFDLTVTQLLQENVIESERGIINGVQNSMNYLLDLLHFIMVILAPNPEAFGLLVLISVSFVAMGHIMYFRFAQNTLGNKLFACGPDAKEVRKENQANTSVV
Nature of the test: FPN activity assay: internalization/degradation of ferroportin-GFP in stably transfected HEK293 cells (decrease in GFP fluorescence). It counts as cell-based. Particulars: compound incubated at least 18 hours. Summed up: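 HEK293 cells stably expressing human ferroportin C-terminally fused to GFP were exposed to peptides for at least 18 h, at most 24 h. Internalization/degradation read as loss of GFP fluorescence; EC50 derived. Retro-inverse mini-hepcidin peptides used as control standards.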

For the next test, the target named is T2, ferroportin (Homo sapiens, UniProt Q9NP59).
T2 sequence (Q9NP59 1-571): T1 sequence (Q9NP59 1-571)
Nature of the test: T47D cell-based ferroportin internalization assay in presence of 0.5% mouse serum albumin (MSA). Particulars: T47D cells. As to the method:
The potency of the peptides in causing ferroportin internalization was evaluated in a T47D cell-based assay. […] In this internalization assay, the potency of the test peptides was evaluated in presence of serum albumin which is the main protein component in the blood. T47D cells were maintained in RPMI media (containing required amount of fetal bovine serum) and regularly sub-cultured. In preparation for the assay, the cells were seeded in 96-well plates at a density of 80-100 k cells per well in 100 ul volume and allowed to rest overnight. On the next day, test peptides were first prepared in dilution series (10-point series, starting concentration of ˜5 μM, typically 3-4×fold dilution steps), all with 0.5% mouse serum albumin (MSA purified from mouse serum; Sigma, A3139). The test peptide dilution series were allowed to incubate at room temperature for 30 min. Then the media was aspirated from the 96-well cell plate and test peptide dilution series were added. After 1 hr incubation, the media with test peptides was aspirated out and AF647-conjugated detection peptide was added at fixed concentration of 200 nM. The AF647-conjugated detection peptide was previously verified to bind to ferroportin and cause its internalization. The cells were washed again after a 2 hr incubation in preparation for flow cytometry analysis. The Median Fluorescence Intensity (MFI) of the AF647-positive population was measured (after removing dead cells and non-singlets from the analysis). The MFI values were used to generate a dose-response curve and obtain IC50 potencies for the test peptides. The IC50 potencies were calculated by using 4-parameter non-linear fitting function in Graphpad Prism (Table 6A).

The structures appear in SMILES notation. Numbered stars: 1 amine (or outer) side, 2 acyl side, 3 side chain; on linkers, the order of the positions; unused ones are H or OH. Bridge positions count the residues as written; N and C are the ends. Square brackets hold non-standard residues; d marks the D form. Side chains are listed from the residue outwards. Peptide text beside a SMILES is read from it. * marks the point of attachment. Dip = N[C@H](C(=O)O)C(c1ccccc1)c1ccccc1; Hag = O=C([C@H](CCC=[*:3])N[*:1])[*:2]; Palmitoyl = CCCCCCCCCCCCCCCC(=O)*; β3hF = N[C@H](CC(=O)O)Cc1ccccc1; NMeL = CN[C@@H](CC(C)C)C(=O)O; Isovaleryl = CC(C)CC(=O)*; Ahx = NCCCCCC(=O)O

Usually IC50 stands for the concentration that inhibits the measured activity by half.

For `CCCCCCCCCCCCCCCC(=O)NCCCCCC(=O)NCCCC[C@H](NC(=O)C[C@H](Cc1ccccc1)NC(=O)[C@@H]1CCC=CCC[C@H](NC(=O)CC(C)C)C(=O)N[C@@H]([C@@H](C)O)C(=O)N[C@@H](C)C(=O)N[C@@H](C(c2ccccc2)c2ccccc2)C(=O)N2CCC[C@H]2C(=O)N[C@@H](C)C(=O)N[C@@H]([C@@H](C)CC)C(=O)N1)C(=O)N[C@H](CCCCN)C(N)=O` [Compd 42] (Isovaleryl-[Hag]TA[Dip]PAI[Hag][β3hF]K([Ahx-Palmitoyl])[dK]-NH2; staple 1-8), the IC50 (in test [1]; at ferroportin) was 100 to 500 nM throughout.

As to `CCCCCCCCCCCCCCCC(=O)NCCCCCC(=O)NCCCC[C@@H]1NC(=O)[C@@H]2CCCN2C(=O)[C@H](C(c2ccccc2)c2ccccc2)NC(=O)[C@H](Cc2c[nH]cn2)NC(=O)[C@H]([C@@H](C)O)NC(=O)[C@@H](NC(=O)CC(C)C)CCC=CCC[C@@H](C(=O)N[C@H](CC(N)=O)Cc2ccccc2)NC(=O)[C@H]([C@@H](C)CC)NC1=O` [Compd 24] (Isovaleryl-[Hag]TH[Dip]PK([Ahx-Palmitoyl])I[Hag][β3hF]-NH2; staple 1-8), the IC50 (in test [1]; at ferroportin) was 10 to 100 nM throughout.

With `CCCCCCCCCCCCCCCC(=O)NCCCCCC(=O)NCCCC[C@H](NC(=O)C[C@H](Cc1ccccc1)NC(=O)[C@@H]1CC=CCC[C@H](NC(=O)CC(C)C)C(=O)N[C@@H]([C@@H](C)O)C(=O)N[C@@H](Cc2c[nH]cn2)C(=O)N[C@@H](C(c2ccccc2)c2ccccc2)C(=O)N2CCC[C@H]2C(=O)N[C@@H](C)C(=O)N[C@@H]([C@@H](C)CC)C(=O)N1)C(=O)N[C@@H](CCCNC(=N)N)C(N)=O` [Compd 22], the IC50 was 1 to 10 nM in test [1] and 10 to 100 nM on ferroportin.

Regarding `CC[C@H](C)[C@@H]1NC(=O)[C@H](C)NC(=O)[C@@H]2CCCN2C(=O)[C@H](C(c2ccccc2)c2ccccc2)NC(=O)[C@H](Cc2c[nH]cn2)NC(=O)[C@H]([C@@H](C)O)NC(=O)[C@@H](NC(=O)CC(C)C)CCC=CCC[C@@H](C(=O)N[C@H](CC(=O)N[C@@H](C)C(=O)N[C@H](CCCCN)C(N)=O)Cc2ccccc2)NC1=O` [Compd 47] (Isovaleryl-[Hag]TH[Dip]PAI[Hag][β3hF]A[dK]-NH2; staple 1-8), the IC50 (in test [1]; at ferroportin) was 10 to 100 nM each time.

As to `CCCCCCCCCCCCCCCC(=O)NCCCCCC(=O)NCCCC[C@H](NC(=O)C[C@H](Cc1ccccc1)NC(=O)[C@@H]1CCC=CCC[C@H](NC(=O)CC(C)C)C(=O)N[C@@H]([C@@H](C)O)C(=O)N[C@@H](Cc2c[nH]cn2)C(=O)N[C@@H](C(c2ccccc2)c2ccccc2)C(=O)N2CCC[C@H]2C(=O)N[C@@H](C)C(=O)N(C)[C@@H](CC(C)C)C(=O)N1)C(=O)N[C@H](CCCCN)C(N)=O` [Compd 53] (Isovaleryl-[Hag]TH[Dip]PA[NMeL][Hag][β3hF]K([Ahx-Palmitoyl])[dK]-NH2; staple 1-8), the IC50 in test [1] was 100 to 500 nM; on ferroportin, 10 to 100 nM.

On to `CCCCCCCCCCCCCCCC(=O)NCCCCCC(=O)NCCCC[C@H](NC(=O)C[C@H](Cc1ccccc1)NC(=O)[C@@H]1CC=CCCC[C@H](NC(=O)CC(C)C)C(=O)N[C@@H]([C@@H](C)O)C(=O)N[C@@H](Cc2c[nH]cn2)C(=O)N[C@@H](C(c2ccccc2)c2ccccc2)C(=O)N2CCC[C@H]2C(=O)N[C@@H](C)C(=O)N[C@@H]([C@@H](C)CC)C(=O)N1)C(=O)N[C@H](CCCCN)C(N)=O` [Compd 30], for which the IC50 (in test [1]; at ferroportin) was 1 to 10 nM each time.

As to `CCCCCCCCCCCCCCCC(=O)NCCCCCC(=O)NCCCC[C@H](NC(=O)C[C@H](Cc1ccccc1)NC(=O)[C@@H]1CCC=CC[C@H](NC(=O)CC(C)C)C(=O)N[C@@H]([C@@H](C)O)C(=O)N[C@@H](Cc2c[nH]cn2)C(=O)N[C@@H](C(c2ccccc2)c2ccccc2)C(=O)N2CCC[C@H]2C(=O)N[C@@H](C)C(=O)N[C@@H]([C@@H](C)CC)C(=O)N1)C(=O)N[C@H](CCCCN)C(N)=O` [Compd 27], the IC50 (in test [1]; on ferroportin) was 10 to 100 nM each time.

The record behind these values is patent US20240209053A1 (Protagonist Therapeutics, Inc., priority 2021, published 2024).
